Tested on: TNF-α
Test: Serum TNF-α ELISA
Method: All animals were maintained under conventional laboratory conditions, including a controlled temperature of 22 ± 2 °C and a 12 hour light/dark photoperiod, with continuous access to standard pellet chow and water. On day 11, following the final treatment, ascitic fluid was collected from the peritoneal cavity using heparinized syringes for EAC cell viability and count analysis. Blood samples were collected under light ether anesthesia via the retro-orbital venous plexus and centrifuged at 3000 rpm for 10 minutes. The resulting serum was separated and stored at −20 °C for biochemical analysis.
Briefly, 96-well microplates pre-coated with a TNF-α-specific capture antibody were loaded with standards and serum samples, followed by incubation to allow antigen binding. After washing, a biotin-labeled detection antibody was added, followed by an avidin–HRP conjugate to amplify the signal. The enzymatic reaction was developed using a TMB substrate and stopped with an acidic solution. Absorbance was measured at 450 nm using the ELISA microplate reader. TNF-α concentrations were calculated by plotting sample absorbance values against a standard curve and expressed in pg mL^−1. All measurements were performed in triplicate, and data were presented as mean ± SD.

## CCOC(=O)/C(C#N)=C/c1ccc(Oc2c(C)c3cc(Br)c(O)c(Br)c3[nH]c2=O)cc1 [Compound 7, ethyl (E)-2-cyano-3-(4-((6,8-dibromo-7-hydroxy-4-methyl-2-oxo-1,2-dihydroquinolin-3-yl)oxy)phenyl)acrylate]
EAC + compound 7 (10 mg kg^−1 i.p.), EAC control 156.80 ± 4.71
  serum TNF-α: 56.42 ± 2.01 pg/mL
Compound 7-only control group, no EAC
  serum TNF-α: 29.37 ± 1.33 pg/mL

— PMC12461739, “Multi-targeted azacoumarin–cyanocinnamate hybrids induce G2/M arrest and apoptosis via tubulin, and COX-2/VEGFR modulation: insights from in vitro mechanistic basis and in vivo validation” (RSC Medicinal Chemistry, 2025)
